In ChEMBL document CHEMBL4418283, “Fluorinated lysyl oxidase-like 2 inhibitors and uses thereof” (2017):
pIC50: −log10 of the molar value. Active and inactive are the calls of the source. The calls are words filed in the database; no cut-off is given here.

Experiments:
Mus musculus [1] = test: Antifibrotic activity in C57BL/6 mouse model of bleomycin-induced lung fibrosis assessed as reduction in cross linked collagen level in lung at 60 mg/kg, po pre-treated 1 hr to 1 day before bleomycin injection and measured after 14 to 28 days by Picro-Sirius staining based assay; assay type: functional, organism-based
Mus musculus [2] = test: Antifibrotic activity in C57BL/6 mouse model of bleomycin-induced lung fibrosis assessed as reduction in collagen level in lung at 60 mg/kg, po pre-treated 1 hr to 1 day before bleomycin injection and measured after 14 to 28 days by hydroxyproline assay; assay type: functional, organism-based
Mus musculus [3] = test: Antifibrotic activity in C57BL/6 mouse model of bleomycin-induced lung fibrosis assessed as reduction in alpha smooth muscle actin level in lung at 60 mg/kg, po pre-treated 1 hr to 1 day before bleomycin injection and measured after 14 to 28 days by immunohistochemistry analysis; assay type: functional, organism-based
Mus musculus [4] = test: Antifibrotic activity in C57BL/6 mouse model of bleomycin-induced lung fibrosis assessed as reduction in cross linked collagen level in lung at 60 mg/kg, po pre-treated 1 hr to 1 day before bleomycin injection and measured after 14 to 28 days by Masson's trichrome staining based assay; assay type: functional, organism-based
Mus musculus [5] = test: Antifibrotic activity in C57BL/6 mouse model of bleomycin-induced lung fibrosis assessed as reduction in hydroxyproline in lung homogenates at 60 mg/kg, po pre-treated 1 hr to 1 day before bleomycin injection and measured after 14 to 28 days by chloramine T and Erlich's solution based assay; assay type: functional, organism-based
Mus musculus [6] = test: Antifibrotic activity in C57BL/6 mouse model of bleomycin-induced lung fibrosis assessed as reduction in alpha smooth muscle actin level in lung at 60 mg/kg, po treated 7 to 14 days after bleomycin injection and measured after 14 to 28 days by immunohistochemistry analysis; assay type: functional, organism-based
Mus musculus [7] = test: Antifibrotic activity in C57BL/6 mouse model of bleomycin-induced lung fibrosis assessed as reduction in cross linked collagen level in lung at 60 mg/kg, po treated 7 to 14 days after bleomycin injection and measured after 14 to 28 days by Masson's trichrome staining based assay; assay type: functional, organism-based
Mus musculus [8] = test: Antifibrotic activity in C57BL/6 mouse model of bleomycin-induced lung fibrosis assessed as reduction in collagen level in lung at 60 mg/kg, po treated 7 to 14 days after bleomycin injection and measured after 14 to 28 days by hydroxyproline assay; assay type: functional, organism-based
Mus musculus [9] = test: Antifibrotic activity in C57BL/6 mouse model of bleomycin-induced lung fibrosis assessed as reduction in hydroxyproline in lung homogenates at 60 mg/kg, po treated 7 to 14 days after bleomycin injection and measured after 14 to 28 days by chloramine T and Erlich's solution based assay; assay type: functional, organism-based
Mus musculus [10] = test: Antifibrotic activity in C57BL/6 mouse model of bleomycin-induced lung fibrosis assessed as reduction in cross linked collagen level in lung at 60 mg/kg, po treated 7 to 14 days after bleomycin injection and measured after 14 to 28 days by Picro-Sirius staining based assay; assay type: functional, organism-based
Lysyl oxidase homolog 2 = molecular target: T1, Lysyl oxidase homolog 2 (Homo sapiens, UniProt Q9Y4K0); test: Inhibition of human LOXL2 expressed in CHO cells assessed as reduction in amine oxidase activity incubated for 2 hrs by Amplex red based fluorescence assay; assay type: cell-based
T1 sequence (Q9Y4K0 whole entry): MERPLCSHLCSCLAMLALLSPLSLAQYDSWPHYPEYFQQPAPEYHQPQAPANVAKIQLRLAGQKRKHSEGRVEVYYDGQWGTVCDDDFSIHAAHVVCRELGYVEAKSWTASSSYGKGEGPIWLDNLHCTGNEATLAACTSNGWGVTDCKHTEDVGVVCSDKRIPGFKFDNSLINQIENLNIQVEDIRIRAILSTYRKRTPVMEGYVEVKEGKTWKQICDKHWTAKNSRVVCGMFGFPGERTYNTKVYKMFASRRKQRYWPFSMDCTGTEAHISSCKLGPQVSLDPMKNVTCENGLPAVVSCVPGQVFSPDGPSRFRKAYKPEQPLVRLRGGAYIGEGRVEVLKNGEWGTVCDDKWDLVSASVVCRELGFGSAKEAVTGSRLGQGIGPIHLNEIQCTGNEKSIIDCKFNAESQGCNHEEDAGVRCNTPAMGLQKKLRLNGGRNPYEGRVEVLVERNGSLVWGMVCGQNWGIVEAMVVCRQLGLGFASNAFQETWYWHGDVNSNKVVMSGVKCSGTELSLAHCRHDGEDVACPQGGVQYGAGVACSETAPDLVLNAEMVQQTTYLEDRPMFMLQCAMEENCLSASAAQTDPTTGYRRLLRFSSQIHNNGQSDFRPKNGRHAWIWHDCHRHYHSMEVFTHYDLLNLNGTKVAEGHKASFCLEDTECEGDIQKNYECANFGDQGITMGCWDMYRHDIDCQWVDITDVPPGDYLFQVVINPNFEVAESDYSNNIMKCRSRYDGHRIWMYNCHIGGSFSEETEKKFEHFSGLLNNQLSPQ

Mus musculus [11] = test: Antifibrotic activity in COL4A3 deficient mouse A1port model of kidney fibrosis assessed as effect on CTGF gene expression at 30 mg/kg, po dosed during 2 to 3 days of age and measured at 7 to 9 weeks of age by RT-PCR analysis; assay type: functional, organism-based
Mus musculus [12] = test: Antifibrotic activity in COL4A3 deficient mouse A1port model of kidney fibrosis assessed as effect on TGFbeta1 gene expression at 30 mg/kg, po dosed during 2 to 3 days of age and measured at 7 to 9 weeks of age by RT-PCR analysis; assay type: functional, organism-based
Mus musculus [13] = test: Antifibrotic activity in COL4A3 deficient mouse A1port model of kidney fibrosis assessed as effect on WT1 protein expression at 30 mg/kg, po dosed during 2 to 3 days of age and measured at 7 to 9 weeks of age by immunohistochemical analysis; assay type: functional, organism-based
Mus musculus [14] = test: Antifibrotic activity in COL4A3 deficient mouse A1port model of kidney fibrosis assessed as effect on IL6 gene expression at 30 mg/kg, po dosed during 2 to 3 days of age and measured at 7 to 9 weeks of age by RT-PCR analysis; assay type: functional, organism-based
Mus musculus [15] = test: Antifibrotic activity in COL4A3 deficient mouse A1port model of kidney fibrosis assessed as effect on albinuria level at 30 mg/kg, po dosed during 2 to 3 days of age and measured at 7 to 9 weeks of age; assay type: functional, organism-based
Mus musculus [16] = test: Antifibrotic activity in COL4A3 deficient mouse A1port model of kidney fibrosis assessed as effect on MMP2 gene expression at 30 mg/kg, po dosed during 2 to 3 days of age and measured at 7 to 9 weeks of age by RT-PCR analysis; assay type: functional, organism-based
Mus musculus [17] = test: Antifibrotic activity in COL4A3 deficient mouse A1port model of kidney fibrosis assessed as effect on integrin alpha8 protein expression at 30 mg/kg, po dosed during 2 to 3 days of age and measured at 7 to 9 weeks of age by immunohistochemical analysis; assay type: functional, organism-based
Mus musculus [18] = test: Antifibrotic activity in COL4A3 deficient mouse A1port model of kidney fibrosis assessed as effect on CD45 protein expression at 30 mg/kg, po dosed during 2 to 3 days of age and measured at 7 to 9 weeks of age by immunohistochemical analysis; assay type: functional, organism-based
Mus musculus [19] = test: Antifibrotic activity in COL4A3 deficient mouse A1port model of kidney fibrosis assessed as effect on MMP10 gene expression at 30 mg/kg, po dosed during 2 to 3 days of age and measured at 7 to 9 weeks of age by RT-PCR analysis; assay type: functional, organism-based
Mus musculus [20] = test: Antifibrotic activity in COL4A3 deficient mouse A1port model of kidney fibrosis assessed as effect on MCP1 gene expression at 30 mg/kg, po dosed during 2 to 3 days of age and measured at 7 to 9 weeks of age by RT-PCR analysis; assay type: functional, organism-based
Mus musculus [21] = test: Antifibrotic activity in COL4A3 deficient mouse A1port model of kidney fibrosis assessed as effect on MMP9 gene expression at 30 mg/kg, po dosed during 2 to 3 days of age and measured at 7 to 9 weeks of age by RT-PCR analysis; assay type: functional, organism-based
Mus musculus [22] = test: Antifibrotic activity in COL4A3 deficient mouse A1port model of kidney fibrosis assessed as effect on laminin a5 protein expression at 30 mg/kg, po dosed during 2 to 3 days of age and measured at 7 to 9 weeks of age by immunohistochemical analysis; assay type: functional, organism-based
Mus musculus [23] = test: Antifibrotic activity in COL4A3 deficient mouse A1port model of kidney fibrosis assessed as effect on MMP12 gene expression at 30 mg/kg, po dosed during 2 to 3 days of age and measured at 7 to 9 weeks of age by RT-PCR analysis; assay type: functional, organism-based
Mus musculus [24] = test: Antifibrotic activity in COL4A3 deficient mouse A1port model of kidney fibrosis assessed as effect on collagen 1 protein expression at 30 mg/kg, po dosed during 2 to 3 days of age and measured at 7 to 9 weeks of age by immunohistochemical analysis; assay type: functional, organism-based
Mus musculus [25] = test: Antifibrotic activity in COL4A3 deficient mouse A1port model of kidney fibrosis assessed as effect on fibronectin protein expression at 30 mg/kg, po dosed during 2 to 3 days of age and measured at 7 to 9 weeks of age by immunohistochemical analysis; assay type: functional, organism-based
Mus musculus [26] = test: Antifibrotic activity in COL4A3 deficient mouse A1port model of kidney fibrosis assessed as effect on smooth muscle actin protein expression at 30 mg/kg, po dosed during 2 to 3 days of age and measured at 7 to 9 weeks of age by immunohistochemical analysis; assay type: functional, organism-based
Mus musculus [27] = test: Antifibrotic activity in COL4A3 deficient mouse A1port model of kidney fibrosis assessed as effect on collagen-1 protein expression at 30 mg/kg, po dosed during 2 to 3 days of age and measured at 7 to 9 weeks of age by immunohistochemical analysis; assay type: functional, organism-based
Mus musculus [28] = test: Antifibrotic activity in COL4A3 deficient mouse A1port model of kidney fibrosis assessed as effect on BUN level at 30 mg/kg, po dosed during 2 to 3 days of age and measured at 7 to 9 weeks of age; assay type: functional, organism-based

SMILES | Activity (Mus musculus [1]) | Activity (Mus musculus [2]) | Activity (Mus musculus [3]) | Activity (Mus musculus [4]) | Activity (Mus musculus [5]) | Activity (Mus musculus [6]) | Activity (Mus musculus [7]) | Activity (Mus musculus [8]) | Activity (Mus musculus [9]) | Activity (Mus musculus [10]) | also measured
NCc1cc(Oc2cccc(C(=O)NCCn3cnnn3)c2)nc(C(F)(F)F)c1 | Active | Active | Active | Active | Active |  |  |  |  |  | 
NCc1cc(Oc2cccc(C(=O)N3C[C@H](O)[C@@H](F)C3)c2)nc(C(F)(F)F)c1 (relative stereo) | Active | Active | Active | Active | Active | Active | Active | Active | Active | Active | 
NCc1cc(O[C@@H]2CCCN(C(=O)Nc3ccccc3)C2)nc(C(F)(F)F)c1 |  |  |  |  |  |  |  |  |  |  | pIC50 (Lysyl oxidase homolog 2): 6.00 to 6.52
NCc1cc(Oc2cccc(C(=O)Nc3ccccc3)c2)nc(C(F)(F)F)c1 | Active | Active | Active | Active | Active |  |  |  |  |  | 
NCc1cc(Oc2cccc(C(=O)N3C[C@H](O)[C@@H](F)C3)c2)nc(C(F)(F)F)c1 (racemic) | Active | Active | Active | Active | Active | Active | Active | Active | Active | Active | 
NCc1cc(Oc2cccc(C(=O)N3C[C@@H](O)[C@H](F)C3)c2)nc(C(F)(F)F)c1 | Active | Active | Active | Active | Active | Active | Active | Active | Active | Active | Activity (Mus musculus [11]): Active; Activity (Mus musculus [12]): Active; Activity (Mus musculus [13]): Active; Activity (Mus musculus [14]): Active; Activity (Mus musculus [15]): Active; Activity (Mus musculus [16]): Active; Activity (Mus musculus [17]): Active; Activity (Mus musculus [18]): Active; Activity (Mus musculus [19]): Active; Activity (Mus musculus [20]): Active; Activity (Mus musculus [21]): Active; Activity (Mus musculus [22]): Active; Activity (Mus musculus [23]): Active; Activity (Mus musculus [24]): Active; Activity (Mus musculus [25]): Active; Activity (Mus musculus [26]): Active; Activity (Mus musculus [27]): Active; Activity (Mus musculus [28]): Active
CC(C)(C)OC(=O)N1CCN(C(=O)Cn2ccc3c(Oc4cc(CN)cc(C(F)(F)F)n4)cccc32)CC1 |  |  |  |  |  |  |  |  |  |  | pIC50 (Lysyl oxidase homolog 2): > 6.52
NCc1cc(Oc2cccc3c2CCC(=O)N3)nc(C(F)(F)F)c1 | Active | Active | Active | Active | Active |  |  |  |  |  | 
CS(=O)(=O)CCNC(=O)c1cccc(Oc2cc(CN)cc(C(F)(F)F)n2)c1 | Active | Active | Active | Active | Active |  |  |  |  |  | 
